From patent US8440830B2, “Tetrahydro-fused pyridines as histone deacetylase inhibitors” (4SC AG, priority 2007, dated 2013) come the findings set out here.

The test system of the assay is A549 NSCLC cells. In words: Cellular cytotoxicity assay (Alamar Blue), A549. It is filed as cell-based. The conditions noted are these: Homo sapiens, 72 h, upper end given as ≧100, read-out: IC50 (μM), cytotoxicity towards A549 NSCLC cells. As to the method: The anti-proliferative activity of the histone deacetylase inhibitory compounds as described herein, is evaluated using the following cell lines: HeLa and HeLa-KB (cervical carcinoma), H460 (non small cell lung cancer), A549 (non-small cell lung cancer), MCF7 (breast carcinoma), MCF10A (normal, non tumorigenic breast epithelial), MDA-MB468 (breast carcinoma), MDA-MB435 (breast carcinoma), MDA-MB231 (breast carcinoma), SKBR-3 (breast carcinoma), SKOV-3 (ovarial carcinoma), A-2780 (ovarial carcinoma), RKO (colon carcinoma), HCT-15 (colon carcinoma), HCT-116 (colon carcinoma), PC3 (prostate carcinoma), BPH1 (benign prostate hyperplasia), AsPC1 (pancreatic carcinoma), Ca127 (tongue carcinoma), A-431 (vulva carcinoma), Hec1A (endometrial carcinoma), Saos-2 (osteosarcoma), U87MG (glioblastoma), WM266-4 (melanoma), K562 (chronic myeloid leukemia), EOL1 (acute hypereosinophilic myeloid leukemia), CCRF-CEM and CCRF-CEM VCR1000 (acute lymphoblastic leukemia sensitive and resistant towards Vincristine). For quantification of cellular proliferation/living cells the Alamar Blue (Resazurin) cell viability assay is applied (O'Brien et al. Eur J Biochem 267, 5421-5426, 2000). In this assay Resazurin is reduced to the fluorescent resorufine by cellular dehydrogenase activity, correlating with viable, proliferating cells. The examples are dissolved as 20 mM solutions in dimethylsulfoxide (DMSO) and subsequently diluted in semi-logarithmic steps. Cell lines are seeded at respective density into 96 well flat bottom plates in a volume of 200 μl per well. 24 h after seeding 1 μl each of the compound dilutions are added into each well of the 96 well plate. Each compound dilution is tested as quadruplicates. Wells containing untreated control cells are filled with 200 μl DMEM medium containing 0.5% v:v DMSO. The cells are then incubated with the compounds for 72 h at 37° C. in a humidified atmosphere containing 5% carbon dioxide. To determine the viability of the cells, 20 μl of a Resazurin solution (Sigma; 90 mg/l) are added. After 4 h incubation at 37° C. the fluorescence is measured at an extinction of λ=544 nm and an emission of λ=590 nm. For the calculation of the cell viability the emission value from untreated cells is set as 100% viability and the emission rates of treated cells are set in relation to the values of untreated cells. Viabilities are expressed as % values. The corresponding IC50 values of the compounds for cytotoxic activity are determined from the concentration-effect curves by means of non-linear regression.
Background: The colour change of resazurin is a common sign of viable cells or microbes.

Bounds are passed on as bounds.

The term IC50 denotes the concentration that inhibits the measured activity by half. For `CC(C)c1ccc(N)c(NC(=O)c2nc3c(s2)CN(C(=O)Nc2ccc(F)cc2)CC3)c1` [Example 52, N^2-(2-amino-5-isopropylphenyl)-N^5-(4-fluorophenyl)-6,7-dihydro[1,3]thiazolo[5,4-c]pyridine-2,5(4H)-dicarboxamide], the IC50 was at least 0.2 µM.

Regarding `COc1ccc(NC(=O)N2CCc3nc(C(=O)Nc4cc(N(C)C)ccc4N)sc3C2)cc1` [Example 53, N^2-[2-amino-5-(dimethylamino)phenyl]N^5-(4-methoxyphenyl)-6,7-dihydro[1,3]thiazolo[5,4-c]pyridine-2,5(4H)-dicarboxamide], the IC50 was at least 0.2 µM.

Regarding `COc1ccc(NC(=O)N2CCc3nc(C(=O)Nc4cc(-c5cccs5)ccc4N)sc3C2)cc1` [Example 54, N^2-[2-amino-5-(2-thienyl)phenyl]-N^5-(4-methoxyphenyl)-6,7-dihydro[1,3]thiazolo[5,4-c]pyridine-2,5(4H)-dicarboxamide], the IC50 was at least 0.2 µM.

On to `CN(C)c1ccc(NC(=O)N2CCc3nc(C(=O)Nc4cc(-c5cccs5)ccc4N)sc3C2)cc1` [Example 55, N^2-[2-amino-5-(2-thienyl)phenyl]-N^5-[4-(dimethylamino)phenyl]-6,7-dihydro[1,3]thiazolo[5,4-c]pyridine-2,5(4H)-dicarboxamide], for which the IC50 was at least 0.2 µM.

For `COc1ccc(NC(=O)N2CCc3nc(C(=O)Nc4cc(-c5ccsc5)ccc4N)sc3C2)cc1` [Example 56, N^2-[2-amino-5-(3-thienyl)phenyl]-N^5-(4-methoxyphenyl)-6,7-dihydro[1,3]thiazolo[5,4-c]pyridine-2,5(4H)-dicarboxamide], the concentration for half-maximal inhibition (IC50) is at least 0.2 µM.

As for `Nc1ccccc1NC(=O)c1nc2c(s1)CN(C(=O)Nc1cccc3cnccc13)CC2` [Example 62, N^2-(2-aminophenyl)-N^5-isoquinolin-5-yl-6,7-dihydro[1,3]thiazolo[5,4-c]pyridine-2,5(4H)-dicarboxamide], the half-inhibitory concentration (IC50) is at least 0.2 µM.

On to `CN(C)c1ccc(NC(=O)C(=O)N2CCc3nc(C(=O)Nc4ccccc4N)sc3C2)cc1` [Example 64, N-(2-aminophenyl)-5-[{[4-(dimethylamino)phenyl]amino}(oxo)acetyl]-4,5,6,7-tetrahydro[1,3]thiazolo[5,4-c]pyridine-2-carboxamide], for which the concentration for half-maximal inhibition (IC50) was at least 0.2 µM.

Regarding `COc1ccc(NC(=O)C(=O)N2CCc3nc(C(=O)Nc4ccccc4N)sc3C2)cc1` [Example 65, N-(2-aminophenyl)-5-{[(4-methoxyphenyl)amino](oxo)acetyl}-4,5,6,7-tetrahydro[1,3]thiazolo[5,4-c]pyridine-2-carboxamide], the 50% inhibitory concentration (IC50) is at least 0.2 µM.

`COc1ccc(NC(=O)C(=O)N2CCc3nc(C(=O)Nc4ccccc4N)sc3C2)cc1OC` [Example 66, N-(2-aminophenyl)-5-{[(3,4-dimethoxyphenyl)amino](oxo)acetyl}-4,5,6,7-tetrahydro[1,3]thiazolo[5,4-c]pyridine-2-carboxamide]: the half-inhibitory concentration (IC50) was at least 0.2 µM.

As to `Nc1ccccc1NC(=O)c1nc2c(s1)CN(C(=O)C(=O)NC1CCC(c3ccncc3)CC1)CC2` (centres unmarked) [Example 67, N-(2-aminophenyl)-5-{oxo[(4-pyridin-4-ylcyclohexyl)amino]acetyl}-4,5,6,7-tetrahydro[1,3]thiazolo[5,4-c]pyridine-2-carboxamide], the IC50 was at least 0.2 µM.

In the case of `Nc1ccccc1NC(=O)c1nc2c(s1)CN(C(=O)C(=O)Nc1cccc3cnccc13)CC2` [Example 68, N-(2-aminophenyl)-5-[(isoquinolin-5-ylamino)(oxo)acetyl]-4,5,6,7-tetrahydro[1,3]thiazolo[5,4-c]pyridine-2-carboxamide], the IC50 is at least 0.2 µM.

In the case of `Nc1ccccc1NC(=O)c1nc2c(s1)CN(C(=O)C(=O)NC1CCC(c3cccnc3)CC1)CC2` (centres unmarked) [Example 69, N-(2-aminophenyl)-5-{oxo[(4-pyridin-3-ylcyclohexyl)amino]acetyl}-4,5,6,7-tetrahydro[1,3]thiazolo[5,4-c]pyridine-2-carboxamide], the IC50 is at least 0.2 µM.

On to `COc1ccc(NC(=O)C(=O)N2CCc3nc(C(=O)Nc4ccccc4N)sc3C2)cn1` [Example 70, N-(2-aminophenyl)-5-{[(6-methoxypyridin-3-yl)amino](oxo)acetyl}-4,5,6,7-tetrahydro[1,3]thiazolo[5,4-c]pyridine-2-carboxamide], for which the concentration for half-maximal inhibition (IC50) was at least 0.2 µM.

`CN(C)c1ccc(NC(=O)C(=O)N2CCc3nc(C(=O)Nc4ccccc4N)sc3C2)cn1` [Example 71, N-(2-aminophenyl)-5-[{[6-(dimethylamino)pyridin-3-yl]amino}(oxo)acetyl]-4,5,6,7-tetrahydro[1,3]thiazolo[5,4-c]pyridine-2-carboxamide]: the concentration for half-maximal inhibition (IC50) is at least 0.2 µM.

In the case of `Nc1ccccc1NC(=O)c1nc2c(s1)CN(C(=O)C(=O)Nc1ccc(OC(F)(F)F)cc1)CC2` [Example 72, N-(2-aminophenyl)-5-(oxo{[4-(trifluoromethoxy)phenyl]amino}acetyl)-4,5,6,7-tetrahydro[1,3]thiazolo[5,4-c]pyridine-2-carboxamide], the half-maximal inhibitory concentration (IC50) was at least 0.2 µM.

Regarding `Nc1ccccc1NC(=O)c1nc2c(s1)CN(C(=O)C(=O)Nc1ccc(N3CCOCC3)nc1)CC2` [Example 73, N-(2-aminophenyl)-5-{[(6-morpholin-4-ylpyridin-3-yl)amino](oxo)acetyl}-4,5,6,7-tetrahydro[1,3]thiazolo[5,4-c]pyridine-2-carboxamide], the IC50 is at least 0.2 µM.

`Nc1ccccc1NC(=O)c1nc2c(s1)CN(C(=O)C(=O)Nc1ccc3c(c1)OCO3)CC2` [Example 74, N-(2-aminophenyl)-5-[(1,3-benzodioxol-5-ylamino)(oxo)acetyl]-4,5,6,7-tetrahydro[1,3]thiazolo[5,4-c]pyridine-2-carboxamide]: the IC50 is at least 0.2 µM.

Regarding `Cc1ccc(NC(=O)C(=O)N2CCc3nc(C(=O)Nc4ccccc4N)sc3C2)cc1` [Example 75, N-(2-aminophenyl)-5-{[(4-methylphenyl)amino](oxo)acetyl}-4,5,6,7-tetrahydro[1,3]thiazolo[5,4-c]pyridine-2-carboxamide], the IC50 was at least 0.2 µM.

As for `Cc1ccc(NC(=O)C(=O)N2CCc3nc(C(=O)Nc4ccccc4N)sc3C2)nc1` [Example 76, N-(2-aminophenyl)-5-{[(5-methylpyridin-2-yl)amino](oxo)acetyl}-4,5,6,7-tetrahydro[1,3]thiazolo[5,4-c]pyridine-2-carboxamide], the concentration for half-maximal inhibition (IC50) is at least 0.2 µM.

As for `Nc1ccccc1NC(=O)c1nc2c(s1)CN(C(=O)C(=O)Nc1cnc3ccccc3c1)CC2` [Example 77, N-(2-aminophenyl)-5-[oxo(quinolin-3-ylamino)acetyl]-4,5,6,7-tetrahydro-[1,3]thiazolo[5,4-c]pyridine-2-carboxamide], the IC50 is at least 0.2 µM.

For the molecule `COc1ccc(NC(=O)C(=O)N2CCc3nc(C(=O)Nc4cc(OC)ccc4N)sc3C2)cc1` [Example 78, N-(2-amino-5-methoxyphenyl)-5-{[(4-methoxyphenyl)amino](oxo)acetyl}-4,5,6,7-tetrahydro[1,3]thiazolo[5,4-c]pyridine-2-carboxamide], the half-maximal inhibitory concentration (IC50) is at least 0.2 µM.

For the molecule `CCCCNC(=O)C(=O)N1CCc2nc(C(=O)Nc3ccccc3N)sc2C1` [Example 79, N-(2-aminophenyl)-5-[(butylamino)(oxo)acetyl]-4,5,6,7-tetrahydro[1,3]thiazolo[5,4-c]pyridine-2-carboxamide], the IC50 was at least 0.2 µM.

As to `COc1ccc(NC(=O)C(=O)N2CCc3nc(C(=O)Nc4cc(C(C)C)ccc4N)sc3C2)cc1OC` [Example 80, N-(2-amino-5-isopropylphenyl)-5-{[(3,4-dimethoxyphenyl)amino](oxo)acetyl}-4,5,6,7-tetrahydro[1,3]thiazolo[5,4-c]pyridine-2-carboxamide], the IC50 is at least 0.2 µM.

For `COc1ccc(NC(=O)C(=O)N2CCc3nc(C(=O)Nc4cc(C(C)C)ccc4N)sc3C2)cc1` [Example 81, N-(2-amino-5-isopropylphenyl)-5-{[(4-methoxyphenyl)amino](oxo)acetyl}-4,5,6,7-tetrahydro[1,3]thiazolo[5,4-c]pyridine-2-carboxamide], the IC50 is at least 0.2 µM.

In the case of `COc1ccc(N)c(NC(=O)c2nc3c(s2)CN(C(=O)C(=O)Nc2ccc(OC)c(OC)c2)CC3)c1` [Example 82, N-(2-amino-5-methoxyphenyl)-5-{[(3,4-dimethoxyphenyl)amino](oxo)acetyl}-4,5,6,7-tetrahydro[1,3]thiazolo[5,4-c]pyridine-2-carboxamide], the IC50 was at least 0.2 µM.

In the case of `CCCCNC(=O)C(=O)N1CCc2nc(C(=O)Nc3cc(OC)ccc3N)sc2C1` [Example 83, N-(2-amino-5-methoxyphenyl)-5-[(butylamino)(oxo)acetyl]-4,5,6,7-tetrahydro[1,3]thiazolo[5,4-c]pyridine-2-carboxamide], the 50% inhibitory concentration (IC50) was at least 0.2 µM.
